{"source": "ChEMBL document CHEMBL4808247", "about": "(Bioorg Med Chem, 2021)", "type_in_all_cases": "functional", "key": {"Enterobacter cloacae [1]": {"tested_on": "Enterobacter cloacae", "test": "Antibacterial activity against Enterobacter cloacae IR32 producing class B beta-lactamase, NDM1 assessed as reduction in microbial growth incubated for 16 to 20 hrs by broth microdilution method", "conditions": "time 16-20 hrs"}, "Escherichia coli [2]": {"tested_on": "Escherichia coli", "test": "Antibacterial activity against Escherichia coli BL21(DE3) transfected with pET9a vector harboring class D beta lactamase, OXA-48 incubated for 16 to 20 hrs by broth microdilution method", "conditions": "time 16-20 hrs"}, "Escherichia coli [3]": {"tested_on": "Escherichia coli", "test": "Antibacterial activity against Escherichia coli BL21(DE3) transfected with pET9a empty vector incubated for 16 to 20 hrs by broth microdilution method", "conditions": "time 16-20 hrs"}, "Escherichia coli [4]": {"tested_on": "Escherichia coli", "test": "Antibacterial activity against Escherichia coli BL21(DE3) transfected with pET9a vector harboring class A beta lactamase, CTX-M-15 incubated for 16 to 20 hrs by broth microdilution method", "conditions": "time 16-20 hrs"}, "Escherichia coli [5]": {"tested_on": "Escherichia coli", "test": "Antibacterial activity against Escherichia coli BL21(DE3) transfected with pET9a vector harboring class B beta lactamase, NDM-1 incubated for 16 to 20 hrs by broth microdilution method", "conditions": "time 16-20 hrs"}, "Escherichia coli [6]": {"tested_on": "Escherichia coli", "test": "Antibacterial activity against Escherichia coli BL21(DE3) transfected with pET9a vector harboring class C beta lactamase, AmpC incubated for 16 to 20 hrs by broth microdilution method", "conditions": "time 16-20 hrs"}, "[7]": {"test": "Ratio of MIC for antibacterial activity against Escherichia coli BL21(DE3) transfected with pET9a vector harboring class B beta lactamase NDM-1 to MIC for antibacterial activity against Escherichia coli BL21(DE3)"}, "[8]": {"test": "Ratio of MIC for antibacterial activity against Escherichia coli BL21(DE3) transfected with pET9a vector harboring class C beta lactamase AmpC to MIC for antibacterial activity against Escherichia coli BL21(DE3)"}, "Escherichia coli [9]": {"tested_on": "Escherichia coli", "test": "Antibacterial activity against Escherichia coli NIHJ JC-2 assessed as reduction in microbial growth incubated for 16 to 20 hrs by broth microdilution method", "conditions": "time 16-20 hrs"}, "Escherichia coli [10]": {"tested_on": "Escherichia coli", "test": "Antibacterial activity against Escherichia coli SR34100 producing class A beta-lactamase, CTX-M-15 assessed as reduction in microbial growth incubated for 16 to 20 hrs by broth microdilution method", "conditions": "time 16-20 hrs"}, "Enterobacter cloacae [11]": {"tested_on": "Enterobacter cloacae", "test": "Antibacterial activity against Enterobacter cloacae SR36276 producing class C beta-lactamase, AmpC assessed as reduction in microbial growth incubated for 16 to 20 hrs by broth microdilution method", "conditions": "time 16-20 hrs"}, "Klebsiella pneumoniae [12]": {"tested_on": "Klebsiella pneumoniae", "test": "Antibacterial activity against Klebsiella pneumoniae PLE producing class D beta-lactamase, OXA-48 assessed as reduction in microbial growth incubated for 16 to 20 hrs by broth microdilution method", "conditions": "time 16-20 hrs"}, "Klebsiella pneumoniae [13]": {"tested_on": "Klebsiella pneumoniae", "test": "Antibacterial activity against Klebsiella pneumoniae JMI:211 producing class A beta-lactamase, KPC-2 assessed as reduction in microbial growth incubated for 16 to 20 hrs by broth microdilution method", "conditions": "time 16-20 hrs"}, "[14]": {"test": "Ratio of MIC for antibacterial activity against Escherichia coli BL21(DE3) transfected with pET9a vector harboring class A beta lactamase, CTX-M-15 to MIC for antibacterial activity against Escherichia coli BL21(DE3)"}, "[15]": {"test": "Ratio of MIC for antibacterial activity against Escherichia coli BL21(DE3) transfected with pET9a vector harboring class D beta lactamase, OXA-48 to MIC for antibacterial activity against Escherichia coli BL21(DE3)"}, "Escherichia coli [16]": {"tested_on": "Escherichia coli", "test": "Antibacterial activity against Escherichia coli NIHJ JC-2 strain assessed as reduction in microbial growth incubated for 16 to 20 hrs in presence of vaborbactam by broth microdilution method", "conditions": "time 16-20 hrs"}, "Escherichia coli [17]": {"tested_on": "Escherichia coli", "test": "Antibacterial activity against Escherichia coli SR34100 producing class A beta lactamase, CTX-M-15 assessed as reduction in microbial growth incubated for 16 to 20 hrs in presence of vaborbactam by broth microdilution method", "conditions": "time 16-20 hrs"}, "Enterobacter cloacae [18]": {"tested_on": "Enterobacter cloacae", "test": "Antibacterial activity against Enterobacter cloacae IR32 producing class B beta-lactamase, NDM-1 assessed as reduction in microbial growth incubated for 16 to 20 hrs in presence of vaborbactam by broth microdilution method", "conditions": "time 16-20 hrs"}, "Enterobacter cloacae [19]": {"tested_on": "Enterobacter cloacae", "test": "Antibacterial activity against Enterobacter cloacae SR36276 producing class C beta-lactamase, AmpC assessed as reduction in microbial growth incubated for 16 to 20 hrs in presence of vaborbactam by broth microdilution method", "conditions": "time 16-20 hrs"}, "Klebsiella pneumoniae [20]": {"tested_on": "Klebsiella pneumoniae", "test": "Antibacterial activity against Klebsiella pneumoniae PLE producing class D beta-lactamase, OXA-48 assessed as reduction in microbial growth incubated for 16 to 20 hrs in presence of vaborbactam by broth microdilution method", "conditions": "time 16-20 hrs"}, "Klebsiella pneumoniae [21]": {"tested_on": "Klebsiella pneumoniae", "test": "Antibacterial activity against Klebsiella pneumoniae JMI:211 producing class A beta-lactamase, KPC-2 assessed as reduction in microbial growth incubated for 16 to 20 hrs in presence of vaborbactam by broth microdilution method", "conditions": "time 16-20 hrs"}}}
{"smiles": "CC(C)(O/N=C(\\C(=O)N[C@@H]1C(=O)N2[C@@H]1SC[C@@H]1CC(=O)O[C@@]12C(=O)O)c1csc(N)n1)C(=O)O", "note": "(stereo in doubt)", "values": [{"measurement": "MIC", "setting": "Enterobacter cloacae [1]", "result": 0.5, "unit": "µg/mL"}, {"measurement": "MIC", "setting": "Escherichia coli [2]", "result": 0.5, "unit": "µg/mL"}, {"measurement": "MIC", "setting": "Escherichia coli [3]", "result": 0.5, "unit": "µg/mL"}, {"measurement": "MIC", "setting": "Escherichia coli [4]", "result": 0.5, "unit": "µg/mL"}, {"measurement": "MIC", "setting": "Escherichia coli [5]", "result": 0.5, "unit": "µg/mL"}, {"measurement": "MIC", "setting": "Escherichia coli [6]", "result": 1, "unit": "µg/mL"}, {"measurement": "Ratio", "setting": "[7]", "result": "<2"}, {"measurement": "Ratio", "setting": "[8]", "result": "<2"}, {"measurement": "MIC", "setting": "Escherichia coli [9]", "result": 0.5, "unit": "µg/mL"}, {"measurement": "MIC", "setting": "Escherichia coli [10]", "result": 1, "unit": "µg/mL"}, {"measurement": "MIC", "setting": "Enterobacter cloacae [11]", "result": 16, "unit": "µg/mL"}, {"measurement": "MIC", "setting": "Klebsiella pneumoniae [12]", "result": 2, "unit": "µg/mL"}, {"measurement": "MIC", "setting": "Klebsiella pneumoniae [13]", "result": 1, "unit": "µg/mL"}, {"measurement": "Ratio", "setting": "[14]", "result": "<2"}, {"measurement": "Ratio", "setting": "[15]", "result": "<2"}]}
{"smiles": "C[C@@H](O)[C@H]1C(=O)N2C(C(=O)O)=C(S[C@@H]3CN[C@H](C(=O)N(C)C)C3)[C@H](C)[C@H]12", "note": "[MEROPENEM]", "values": [{"measurement": "MIC", "setting": "Escherichia coli [16]", "result": "< 0.031", "unit": "µg/mL"}, {"measurement": "MIC", "setting": "Escherichia coli [17]", "result": "< 0.031", "unit": "µg/mL"}, {"measurement": "MIC", "setting": "Enterobacter cloacae [18]", "result": 16, "unit": "µg/mL"}, {"measurement": "MIC", "setting": "Enterobacter cloacae [19]", "result": "< 0.031", "unit": "µg/mL"}, {"measurement": "MIC", "setting": "Klebsiella pneumoniae [20]", "result": 1, "unit": "µg/mL"}, {"measurement": "MIC", "setting": "Klebsiella pneumoniae [21]", "result": "< 0.031", "unit": "µg/mL"}]}
